According to patent US20220411388A1, “SUBSTITUTED IMIDAZOLE CARBOXAMIDES AND THEIR USE IN THE TREATMENT OF MEDICAL DISORDERS” (Bial - R&D Investments, S.A., priority 2019, published 2022):
Converted amounts (≈) assume the structure as drawn.

Key:
acid ceramidase (hACR) = molecular target: T1, acid ceramidase (hACR) (Homo sapiens, UniProt Q13510); assay: Acid ceramidase inhibition, biochemical fluorescent assay with cell lysates overexpressing acid ceramidase (substrate Rbm14-12); settings: cell lysate, 1 hr preincubation at RT, pH 4.5, Rbm14-12 6.3 μM; read-out: IC50 hACR
T1 construct: expressed in transfected cells
T1 sequence (Q13510 22-395): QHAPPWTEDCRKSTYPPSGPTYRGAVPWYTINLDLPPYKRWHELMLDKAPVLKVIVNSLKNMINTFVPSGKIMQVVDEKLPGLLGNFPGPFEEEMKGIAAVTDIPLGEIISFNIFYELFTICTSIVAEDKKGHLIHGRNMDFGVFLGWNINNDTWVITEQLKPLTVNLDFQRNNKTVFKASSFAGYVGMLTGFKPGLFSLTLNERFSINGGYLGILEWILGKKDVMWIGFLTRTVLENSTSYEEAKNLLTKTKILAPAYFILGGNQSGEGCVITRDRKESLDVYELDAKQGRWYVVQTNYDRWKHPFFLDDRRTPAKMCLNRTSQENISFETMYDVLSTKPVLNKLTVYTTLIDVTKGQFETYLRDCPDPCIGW
Method: The ability of exemplary compounds to inhibit acid ceramidase was measured.
Cell lysates overexpressing acid ceramidase were used as the enzyme source for compound potency determination in a biochemical fluorescent assay. Briefly, compounds were preincubated with 10 μg protein of cell lysates in a dose-response manner for 1 hr at RT in the assay buffer containing 25 mM NaAC and 100 mM NaCl, pH 4.5. […] The samples were incubated with the stopping buffer at RT for 1 hr to allow the fluorescent product to be formed. […] Data were collected and used to determine the IC50 values of compounds by curve fitting to the four-parameter inhibition equation.

[1] = Compound solubility in water; assay type: physicochemical

Row | Compound | IC50 (acid ceramidase (hACR)) | solubility [1]
1 | CC(C)CCNC(=O)n1cnc(C2CCN(C)CC2)c1 [Example 48, N-iso-Pentyl-4-(1-methylpiperidin-4-yl)-1H-imidazole-1-carboxamide] | 200 to 1000 nM | 34.2 µg/mL (≈ 123 µM)
2 | CC(C)CCNC(=O)n1cnc(-c2nccs2)c1 [Example 50, N-iso-Pentyl-4-(thiazol-2-yl)-1H-imidazole-1-carboxamide] | 200 to 1000 nM | 23.5 µg/mL (≈ 88.9 µM)
3 | CC(C)CCNC(=O)n1cnc(-c2cncs2)c1 [Example 51, N-iso-Pentyl-4-(thiazol-5-yl)-1H-imidazole-1-carboxamide] | 200 to 1000 nM | 25.1 µg/mL (≈ 94.9 µM)
4 | COc1nc(-c2cccnc2)cn1C(=O)NCCC1CC1 [Example 53, N-(2-Cyclopropylethyl)-2-methoxy-4-(pyridin-3-yl)-1H-imidazole-1-carboxamide] | > 1000 nM | 26.5 µg/mL (≈ 92.5 µM)
5 | CN1CCN(C2CCN(c3ncccc3-c3cn(C(=O)NCCC4CC4)cn3)CC2)CC1 [Example 55, N-(2-Cyclopropylethyl)-4-(2-(4-(4-methylpiperazin-1-yl)piperidin-1-yl)pyridin-3-yl)-1H-imidazole-1-carboxamide] | 200 to 1000 nM | 41.5 µg/mL (≈ 94.8 µM)
6 | CC(C)CCNC(=O)n1cnc(CC2CCN(C)CC2)c1 [Example 56, N-iso-Pentyl-4-((1-methylpiperidin-4-yl)methyl)-1H-imidazole-1-carboxamide] | 200 to 1000 nM | 21.7 µg/mL (≈ 74.2 µM)
7 | COc1nc(C(C)(C)C)cn1C(=O)NCCC(C)C [Example 57, 4-(tert-Butyl)-N-isopentyl-2-methoxy-1H-imidazole-1-carboxamide] | 200 to 1000 nM | 13.3 µg/mL (≈ 49.7 µM)
8 | COc1nc(C(C)(C)C)cn1C(=O)NC(C)CC(C)C (stereo not shown) [Example 58, 4-(tert-Butyl)-2-methoxy-N-(4-methylpentan-2-yl)-1H-imidazole-1-carboxamide] | 200 to 1000 nM | 15.1 µg/mL (≈ 53.7 µM)
9 | CC(C)CC(C)NC(=O)n1cnc(-c2cccnc2)c1 (stereo not shown) [Example 59, N-(4-Methylpentan-2-yl)-4-(pyridin-3-yl)-1H-imidazole-1-carboxamide] | 200 to 1000 nM | 22.3 µg/mL (≈ 81.9 µM)
10 | CCC(C)CNC(=O)n1cnc(-c2cccnc2)c1 (stereo not shown) [Example 60, N-(2-Methylbutyl)-4-(pyridin-3-yl)-1H-imidazole-1-carboxamide] | 200 to 1000 nM | 25.6 µg/mL (≈ 99.1 µM)
11 | O=C(NC1CCCCC1)n1cnc(-c2cccnc2)c1 [Example 61, N-Cyclohexyl-4-(pyridin-3-yl)-1H-imidazole-1-carboxamide] | > 1000 nM | 23 µg/mL (≈ 85.1 µM)

Other lines, results leading:

Row | IC50 (acid ceramidase (hACR)) | solubility [1] | Compound
12 | 200 to 1000 nM | 30.8 µg/mL (≈ 88.1 µM) | CN(C)Cc1cncc(-c2cn(C(=O)NCCc3ccccc3)cn2)c1 [Example 44, 4-(5-((Dimethylamino)methyl)pyridin-3-yl)-N-phenethyl-1H-imidazole-1-carboxamide]
13 | 200 to 1000 nM | 12.1 µg/mL (≈ 44.4 µM) | CC(C)(C)CCNC(=O)n1cnc(-c2cccnc2)c1 [Example 45, N-(3,3-Dimethylbutyl)-4-(pyridin-3-yl)-1H-imidazole-1-carboxamide]
14 | 200 to 1000 nM | 13.8 µg/mL (≈ 53.4 µM) | CC(C)CCNC(=O)n1cnc(-c2ccccn2)c1 [Example 46, N-iso-Pentyl-4-(pyridin-2-yl)-1H-imidazole-1-carboxamide]
15 | 200 to 1000 nM | 32.2 µg/mL (≈ 116 µM) | CC(C)CCNC(=O)n1cnc(C2CCCN(C)C2)c1 (stereo not shown) [Example 47, N-iso-Pentyl-4-(1-methylpiperidin-3-yl)-1H-imidazole-1-carboxamide]
16 | < 200 nM | 7.9 µg/mL (≈ 29 µM) | Cc1nc(-c2cccnc2)cn1C(=O)NCCC(C)C [Example 49, N-iso-Pentyl-2-methyl-4-(pyridin-3-yl)-1H-imidazole-1-carboxamide]
17 | < 200 nM | 32.8 µg/mL (≈ 77.3 µM) | O=C(NCCC1CC1)n1cnc(-c2cccnc2N2CCC(N3CCOCC3)CC2)c1 [Example 54, N-(2-Cyclopropylethyl)-4-(2-(4-morpholinopiperidin-1-yl)pyridin-3-yl)-1H-imidazole-1-carboxamide]
